What was measured:
[1] = in vivo; cited from earlier work
[2] = in vivo

CCCCC(=O)N(Cc1ccc(-c2ccccc2-c2nnn[nH]2)cc1)[C@H](C(=O)O)C(C)C [Valsartan(S)]
HIA(Human Intestinal Absorption) [1]: 0.55
Class(High: HIA value ≥0.7; Low: HIA value < 0.7) [2]: Low (key: High: HIA value ≥0.7; Low: HIA value < 0.7)

CC(C)(C)c1ccc([C@@H](O)CCCN2CCC(C(O)(c3ccccc3)c3ccccc3)CC2)cc1 [Terfenadine(S)]
HIA(Human Intestinal Absorption) [1]: 1
Class(High: HIA value ≥0.7; Low: HIA value < 0.7) [2]: High (key: High: HIA value ≥0.7; Low: HIA value < 0.7)

C[C@@H](O)Cn1cnc2c1c(=O)n(C)c(=O)n2C [Proxyphylline(R)]
HIA(Human Intestinal Absorption) [1]: 1
Class(High: HIA value ≥0.7; Low: HIA value < 0.7) [2]: High (key: High: HIA value ≥0.7; Low: HIA value < 0.7)

COP(=O)(OC)O[C@@H](c1ccc(Cl)cc1)P(=O)(OC)OC [Mifobate(R)]
HIA(Human Intestinal Absorption) [1]: 0.82
Class(High: HIA value ≥0.7; Low: HIA value < 0.7) [2]: High (key: High: HIA value ≥0.7; Low: HIA value < 0.7)

CN1C(=O)NC(=O)C(C)(C2=CCCCC2)C1=O (stereo not drawn) [Hexobarbital]
HIA(Human Intestinal Absorption) [1]: 0.95
Class(High: HIA value ≥0.7; Low: HIA value < 0.7) [2]: High (key: High: HIA value ≥0.7; Low: HIA value < 0.7)

COC(=O)C1=C(C)NC(C)=C(C(=O)OCC(C)C)[C@H]1c1ccccc1[N+](=O)[O-] [Nisoldipine(S)]
HIA(Human Intestinal Absorption) [1]: 0.9
Class(High: HIA value ≥0.7; Low: HIA value < 0.7) [2]: High (key: High: HIA value ≥0.7; Low: HIA value < 0.7)

COc1ccc([C@@H](CN(C)C)C2(O)CCCCC2)cc1 [Venlafaxine(S)]
HIA(Human Intestinal Absorption) [1]: 0.95
Class(High: HIA value ≥0.7; Low: HIA value < 0.7) [2]: High (key: High: HIA value ≥0.7; Low: HIA value < 0.7)

CC(C)(C)NC[C@@H](O)c1ccc(O)c(CO)n1 [Pirbuterol(R)]
HIA(Human Intestinal Absorption) [1]: 0.6
Class(High: HIA value ≥0.7; Low: HIA value < 0.7) [2]: Low (key: High: HIA value ≥0.7; Low: HIA value < 0.7)

C[C@H](c1cc2ccccc2s1)N(O)C(N)=O [Zileuton(R)]
HIA(Human Intestinal Absorption) [1]: 1
Class(High: HIA value ≥0.7; Low: HIA value < 0.7) [2]: High (key: High: HIA value ≥0.7; Low: HIA value < 0.7)

CCCNC(=O)NS(=O)(=O)c1ccc(Cl)cc1 [Chorpropamide]
HIA(Human Intestinal Absorption) [1]: 0.95
Class(High: HIA value ≥0.7; Low: HIA value < 0.7) [2]: High (key: High: HIA value ≥0.7; Low: HIA value < 0.7)

C#CCN(C)C(C)Cc1ccccc1 (stereo in doubt) [Selegiline(S)]
HIA(Human Intestinal Absorption) [1]: 1
Class(High: HIA value ≥0.7; Low: HIA value < 0.7) [2]: High (key: High: HIA value ≥0.7; Low: HIA value < 0.7)

NS(=O)(=O)c1cc2c(cc1Cl)N[C@@H](CC1CCCC1)NS2(=O)=O [Cyclopenthiazide(R)]
HIA(Human Intestinal Absorption) [1]: 1
Class(High: HIA value ≥0.7; Low: HIA value < 0.7) [2]: High (key: High: HIA value ≥0.7; Low: HIA value < 0.7)

CN1C(=O)[C@H](O)N=C(c2ccccc2Cl)c2cc(Cl)ccc21 [Lormetazepam(S)]
HIA(Human Intestinal Absorption) [1]: 1
Class(High: HIA value ≥0.7; Low: HIA value < 0.7) [2]: High (key: High: HIA value ≥0.7; Low: HIA value < 0.7)

Clc1ccc(CO[C@H](Cn2ccnc2)c2ccc(Cl)cc2Cl)c(Cl)c1 [Miconazole(S)]
HIA(Human Intestinal Absorption) [1]: 0.99
Class(High: HIA value ≥0.7; Low: HIA value < 0.7) [2]: High (key: High: HIA value ≥0.7; Low: HIA value < 0.7)

N=C(N)NC(=O)c1nc(Cl)c(N)nc1N [Amiloride]
HIA(Human Intestinal Absorption) [1]: 0.5
Class(High: HIA value ≥0.7; Low: HIA value < 0.7) [2]: Low (key: High: HIA value ≥0.7; Low: HIA value < 0.7)

COc1cc2c(cc1OC)CN(C(=O)[C@H](C)N[C@@H](CCc1ccccc1)C(=O)O)[C@H](C(=O)O)C2 [Moexipril_diacid]
HIA(Human Intestinal Absorption) [1]: 0.05
Class(High: HIA value ≥0.7; Low: HIA value < 0.7) [2]: Low (key: High: HIA value ≥0.7; Low: HIA value < 0.7)

CN1C[C@H](C(=O)N[C@]2(C)O[C@@]3(O)[C@@H]4CCCN4C(=O)[C@H](Cc4ccccc4)N3C2=O)C=C2c3cccc4[nH]cc(c34)C[C@H]21 [Ergotamine]
HIA(Human Intestinal Absorption) [1]: 1
Class(High: HIA value ≥0.7; Low: HIA value < 0.7) [2]: High (key: High: HIA value ≥0.7; Low: HIA value < 0.7)

CN1C(=O)CC(=O)N(c2ccccc2)c2cc(Cl)ccc21 [Clobazam]
HIA(Human Intestinal Absorption) [1]: 0.87
Class(High: HIA value ≥0.7; Low: HIA value < 0.7) [2]: High (key: High: HIA value ≥0.7; Low: HIA value < 0.7)

NC[C@H]1O[C@H](O[C@H]2[C@H](O)[C@@H](O[C@H]3O[C@H](CO)[C@@H](O)[C@H](N)[C@H]3O)[C@H](N)C[C@@H]2N)[C@H](O)[C@@H](O)[C@@H]1O [Kanamycin]
HIA(Human Intestinal Absorption) [1]: 0.01
Class(High: HIA value ≥0.7; Low: HIA value < 0.7) [2]: Low (key: High: HIA value ≥0.7; Low: HIA value < 0.7)

CN1C(=O)C[C@@](C)(c2ccccc2)C1=O [Methsuximide(S)]
HIA(Human Intestinal Absorption) [1]: 1
Class(High: HIA value ≥0.7; Low: HIA value < 0.7) [2]: High (key: High: HIA value ≥0.7; Low: HIA value < 0.7)

O=C1CN=C(c2ccccc2)c2cc([N+](=O)[O-])ccc2N1 [Nitrazepam]
HIA(Human Intestinal Absorption) [1]: 0.95
Class(High: HIA value ≥0.7; Low: HIA value < 0.7) [2]: High (key: High: HIA value ≥0.7; Low: HIA value < 0.7)

CC(C)(C)NC[C@H](O)COc1nsnc1N1CCOCC1 [Timolol(S)]
HIA(Human Intestinal Absorption) [1]: 0.95
Class(High: HIA value ≥0.7; Low: HIA value < 0.7) [2]: High (key: High: HIA value ≥0.7; Low: HIA value < 0.7)

CCC(C(N)=O)N1CCCC1=O (stereo in doubt) [Levetiracetam(R)]
HIA(Human Intestinal Absorption) [1]: 1
Class(High: HIA value ≥0.7; Low: HIA value < 0.7) [2]: High (key: High: HIA value ≥0.7; Low: HIA value < 0.7)

N[C@@H](CO)C(=O)NNCc1ccc(O)c(O)c1O [Benserazide(S)]
HIA(Human Intestinal Absorption) [1]: 0.7
Class(High: HIA value ≥0.7; Low: HIA value < 0.7) [2]: High (key: High: HIA value ≥0.7; Low: HIA value < 0.7)

COc1cc2nc(N3CCN(C(=O)[C@H]4CCCO4)CC3)nc(N)c2cc1OC [Terazosin(R)]
HIA(Human Intestinal Absorption) [1]: 0.91
Class(High: HIA value ≥0.7; Low: HIA value < 0.7) [2]: High (key: High: HIA value ≥0.7; Low: HIA value < 0.7)

O=C(NC[C@@H]1CCCCN1)c1cc(OCC(F)(F)F)ccc1OCC(F)(F)F [Flecainide(S)]
HIA(Human Intestinal Absorption) [1]: 0.81
Class(High: HIA value ≥0.7; Low: HIA value < 0.7) [2]: High (key: High: HIA value ≥0.7; Low: HIA value < 0.7)

CCCC(=O)Nc1ccc(OC[C@@H](O)CNC(C)C)c(C(C)=O)c1 [Acebutolol(S)]
HIA(Human Intestinal Absorption) [1]: 0.85
Class(High: HIA value ≥0.7; Low: HIA value < 0.7) [2]: High (key: High: HIA value ≥0.7; Low: HIA value < 0.7)

CN1CCC[C@H]1c1cccnc1 [Nicotine(S)]
HIA(Human Intestinal Absorption) [1]: 1
Class(High: HIA value ≥0.7; Low: HIA value < 0.7) [2]: High (key: High: HIA value ≥0.7; Low: HIA value < 0.7)

CC[C@@]1(c2ccc(N)cc2)CCC(=O)NC1=O [Aminoglutethimide(S)]
HIA(Human Intestinal Absorption) [1]: 1
Class(High: HIA value ≥0.7; Low: HIA value < 0.7) [2]: High (key: High: HIA value ≥0.7; Low: HIA value < 0.7)

O=C(O[C@H]1C[C@H]2CC[C@@H](C1)[N+]21CCCC1)C(O)(c1ccccc1)c1ccccc1 [Trospium_chloride]
HIA(Human Intestinal Absorption) [1]: 0.1
Class(High: HIA value ≥0.7; Low: HIA value < 0.7) [2]: Low (key: High: HIA value ≥0.7; Low: HIA value < 0.7)

CCCCCc1cc(O)c2c(c1)OC(C)(C)[C@@H]1CCC(C)=C[C@@H]21 [Tetrahydrocannabinol]
HIA(Human Intestinal Absorption) [1]: 0.93
Class(High: HIA value ≥0.7; Low: HIA value < 0.7) [2]: High (key: High: HIA value ≥0.7; Low: HIA value < 0.7)

O=C1Nc2ccc(Cl)cc2C(c2ccccc2Cl)=N[C@@H]1O [Lorazepam(R)]
HIA(Human Intestinal Absorption) [1]: 0.95
Class(High: HIA value ≥0.7; Low: HIA value < 0.7) [2]: High (key: High: HIA value ≥0.7; Low: HIA value < 0.7)

CC(C)NC[C@@H](O)c1ccc(O)c(O)c1 [Isoproterenol(S)]
HIA(Human Intestinal Absorption) [1]: 0.85
Class(High: HIA value ≥0.7; Low: HIA value < 0.7) [2]: High (key: High: HIA value ≥0.7; Low: HIA value < 0.7)

Reference: article PMC4460250, “Systems Pharmacology Dissecting Holistic Medicine for Treatment of Complex Diseases: An Example Using Cardiocerebrovascular Diseases Treated by TCM” (Evidence-based Complementary and Alternative Medicine : eCAM, 2015)
